Data as given in patent publication EP0742012A2, “Pharmaceutical composition containing substance inhibiting HSP47 production” (priority 1995, dated 1996).

Columns and labels:
HSP47 = assay: Amount of HSP47 produced in human cancer cell lines after substance treatment and heat shock, western blotting; type: cell-based; design: key to amounts of HSP47 produced: ↓: means that the amounts of HSP47 produced were reduced by the flavonoid-treatment in comparison with the control tests; details: for amounts of HSP47 produced: vs control
mice [1] = assay: Acute toxicity test for mice by oral administration
mice [2] = details: mouse, in vivo, po
mouse = details: in vivo, iv; cited from earlier work
[3] = colon cancer cell line COLO 205, 100 µM in the medium
[4] = neuroblastoma cell line SK-N-MC, 100 µM in the medium
[5] = uterus cancer cell line HeLa S3, 100 µM in the medium

(+) -Catechin
amounts of HSP47 produced (HSP47; [3]): ↓
amounts of HSP47 produced (HSP47; lung cancer cell line H69, 100 µM in the medium): ↓
amounts of HSP47 produced (HSP47; [4]): ↓
amounts of HSP47 produced (HSP47; [5]): ↓

Cc1c(C)c2c(c(C)c1O)CCC(C)(CCCC(C)CCCC(C)CCCC(C)C)O2 (stereo not drawn) [α-tocopherol, 3,4-dihydro-2,5,7,8-tetramethyl-2-(4,8,12-trimethyltridecyl)-2H-1-benzopyran-6-ol]
HSP47 production (HSP47; uterus cancer cell line HeLa S3, final concentration 20 µM): inhibits the HSP47 production

C[C@@]12C[C@@]3(O)O[C@@H](O1)[C@]1(COC(=O)c4ccccc4)[C@H]3C[C@@]12O[C@@H]1O[C@H](CO)[C@@H](O)[C@H](O)[C@H]1O [paeoniflorin]
death (mice [1]): does hardly cause death
HSP47 production (HSP47; uterus cancer cell line HeLa S3): inhibits the HSP47 production
toxicity (mice [2]): does not have toxicity

O=c1c(O)c(-c2ccc(O)c(O)c2)oc2cc(O)cc(O)c12 [quercetin, 2-(3,4-dihydroxyphenyl)-3,5,7-trihydroxy-4H-1-benzopyran-4-one]
amounts of HSP47 produced (HSP47; [3]): ↓
amounts of HSP47 produced (HSP47; kidney cancer cell line ACHN, 100 µM in the medium): ↓
amounts of HSP47 produced (HSP47; [5]): ↓

COc1cc(C=CC(=O)O)ccc1O [ferulic acid, 4-hydroxy-3-methoxycinnamic acid]
HSP47 production (HSP47; uterus cancer cell line HeLa S3, final concentration 100 µM): inhibits the HSP47 production

O=c1cc(-c2ccccc2)oc2cc(O)c(O)c(O)c12 [baicalein, 5,6,7-trihydroxy-2-phenyl-4H-1-benzopyran-4-one]
amounts of HSP47 produced (HSP47; uterus cancer cell line HeLa S3, 10 µM in the medium): ↓

C[C@@H]1O[C@@H](OC[C@H]2O[C@@H](Oc3c(-c4ccc(O)c(O)c4)oc4cc(O)cc(O)c4c3=O)[C@H](O)[C@@H](O)[C@@H]2O)[C@H](O)[C@H](O)[C@H]1O [rutin, quercetin-3-rutinoside]
amounts of HSP47 produced (HSP47; [4]): ↓
acute toxicity (LD50) (mouse): 950 mg/kg
